In PubChem BioAssay (NCI):
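Interpolation was linear, between the two tested concentrations surrounding the appropriate level; five concentrations were tested over 48 hours in 96-well plates. The concentration for full growth arrest is given as TGI.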

Experiments:
Test in all cases: DTP human tumour cell line panel, 48 h
[1] = system: 786-0 renal
[2] = system: A498 renal
[3] = system: A549 NSCLC
[4] = system: ACHN renal
[5] = system: BT-549 breast
[6] = system: CAKI-1 renal
[7] = system: CCRF-CEM leukemia
[8] = system: COLO 205 colon
[9] = system: DU-145 prostate
[10] = system: HCC-2998 colon
[11] = system: HCT-116 colon
[12] = system: HCT-15 colon
[13] = system: HOP-62 NSCLC
[14] = system: HOP-92 NSCLC
[15] = system: HS 578T breast
[16] = system: HT29 colon
[17] = system: IGROV1 ovarian
[18] = system: K-562 leukemia
[19] = system: KM12 colon
[20] = system: LOX IMVI melanoma
[21] = system: M14 melanoma
[22] = system: MALME-3M melanoma
[23] = system: MDA-MB-231 breast
[24] = system: MDA-MB-435
[25] = system: MDA-N
[26] = system: MOLT-4 leukemia
[27] = system: NCI-H226 lung
[28] = system: NCI-H23 lung
[29] = system: NCI-H460 lung
[30] = system: NCI-H522 lung
[31] = system: NCI/ADR-RES ovarian
[32] = system: OVCAR-3 ovarian
[33] = system: OVCAR-4 ovarian
[34] = system: OVCAR-5 ovarian
[35] = system: OVCAR-8 ovarian
[36] = system: PC-3 prostate
[37] = system: RPMI-8226 leukemia
[38] = system: RXF 393 renal
[39] = system: SF-268 CNS
[40] = system: SF-295 CNS
[41] = system: SK-MEL-2 melanoma
[42] = system: SK-MEL-28 melanoma
[43] = system: SK-MEL-5 melanoma
[44] = system: SK-OV-3 ovarian
[45] = system: SN12C renal
[46] = system: SNB-19 CNS
[47] = system: SNB-75 CNS
[48] = system: SR leukemia
[49] = system: SW-620 colon
[50] = system: T-47D breast
[51] = system: TK-10 renal
[52] = system: U251 CNS
[53] = system: UACC-257 melanoma
[54] = system: UACC-62 melanoma
[55] = system: UO-31 renal
[56] = system: EKVX NSCLC

Measured: TGI

O=c1c2sc3nc(NCCN4CCCCC4)ncc3c2ncn1-c1ccccc1
49.9 µM: [55]
36.3 µM: [43]
58.4 µM: [22]
84.4 µM: [38]
95.5 µM: [14]
41.9 µM: [20]
39.2 µM: [21]
not listed: [56]
> 100 µM: all other assays above

O=[N+]([O-])c1ccc(N=Nc2c(O)ccc3cc(S(=O)(=O)O)cc(S(=O)(=O)O)c23)cc1
not listed: [10] | [29]
> 100 µM: all other assays above
